Assay results as given in ChEMBL document CHEMBL5154686, “Discovery of G2019S-Selective Leucine Rich Repeat Protein Kinase 2 inhibitors with in vivo efficacy” (Eur J Med Chem, 2022).

What was measured:
[1] = Half life in CD-1 mouse plasma at 0.4 mg/kg, iv by LC-MS/MS analysis; assay type: ADME, organism-based
[2] = Ratio of drug level in brain to plasma in CD-1 mouse plasma at 0.4 mg/kg, iv by LC-MS/MS analysis; assay type: ADME, organism-based; conditions: brain and plasma, read-out: BPR
[3] = Half life in CD-1 mouse plasma at 2 mg/kg, po by LC-MS/MS analysis; assay type: ADME, organism-based
[4] = MRT in CD-1 mouse plasma at 2 mg/kg, po by LC-MS/MS analysis; assay type: ADME, organism-based
[5] = Cmax in CD-1 mouse plasma at 0.4 mg/kg, iv by LC-MS/MS analysis; assay type: ADME, organism-based; design: dose 0.4 mg/kg, route iv
[6] = Ratio of drug level in brain to plasma in CD-1 mouse plasma at 2 mg/kg, po by LC-MS/MS analysis; assay type: ADME, organism-based; conditions: brain and plasma, read-out: BPR
[7] = AUC infinity in CD-1 mouse plasma at 2 mg/kg, po by LC-MS/MS analysis; assay type: ADME, organism-based; design: time infinity, dose 2 mg/kg, route po
[8] = AUC infinity in CD-1 mouse plasma at 0.4 mg/kg, iv by LC-MS/MS analysis; assay type: ADME, organism-based; design: time infinity, dose 0.4 mg/kg, route iv
[9] = MRT in CD-1 mouse plasma at 0.4 mg/kg, iv by LC-MS/MS analysis; assay type: ADME, organism-based
[10] = Oral bioavailability in CD-1 mouse plasma at 2 mg/kg by LC-MS/MS analysis; assay type: ADME, organism-based
[11] = Tmax in CD-1 mouse plasma at 2 mg/kg, po by LC-MS/MS analysis; assay type: ADME, organism-based
[12] = Clearance in CD-1 mouse plasma at 0.4 mg/kg, iv by LC-MS/MS analysis; assay type: ADME, organism-based
in vitro [13] = conditions: human, Caco-2
[14] = Cmax in CD-1 mouse plasma at 2 mg/kg, po by LC-MS/MS analysis; assay type: ADME, organism-based; design: dose 2 mg/kg, route po
in vitro [15] = conditions: human, liver microsomes
in vitro [16] = conditions: mouse, liver microsomes
in vitro [17] = conditions: human, Caco-2; remark: listed apart in the source

N#Cc1ccc2c(c1)CCC[C@H]2Nc1ccc2[nH]nc(-c3ccnc(N4CCOCC4)c3)c2c1
half-life [1]: 42 min | Kp [2]: 0.3 | half-life [3]: 104 min | MRT [4]: 175 min | Cmax [5]: 480 nM | Kp [6]: 0.1 | AUC(0-inf) [7]: 1.64 µM·h | AUC(0-inf) [8]: 0.4 µM·h | MRT [9]: 51.6 min | bioavailability [10]: 80% | Tmax [11]: 30 min | clearance [12]: 36.6 mL/min | Papp A→B (in vitro [13]): 6.2 ×10⁻⁶ cm/s | Cmax [14]: 500 nM | half-life (in vitro [15]): 30 min | half-life (in vitro [16]): 12.7 min | Papp B→A (in vitro [17]): 0.8 ×10⁻⁶ cm/s

Cc1cc(-c2n[nH]c3ccc(N[C@H]4CCCc5cc(C#N)ccc54)cc23)ccn1
Papp A→B (in vitro [13]): 13 ×10⁻⁶ cm/s | half-life (in vitro [15]): 22 min | half-life (in vitro [16]): 15.4 min | Papp B→A (in vitro [17]): 4.1 ×10⁻⁶ cm/s

N#Cc1ccc2c(c1)CCC[C@H]2Nc1ccc2[nH]nc(-c3ccncc3)c2c1
Papp A→B (in vitro [13]): 8.1 ×10⁻⁶ cm/s | half-life (in vitro [15]): 26 min | half-life (in vitro [16]): 12.4 min | Papp B→A (in vitro [17]): 11 ×10⁻⁶ cm/s

Cc1cc(-c2n[nH]c3ccc(N[C@H]4CCCc5cc(C#N)ccc54)cc23)cc(C)n1
Papp A→B (in vitro [13]): 4.6 ×10⁻⁶ cm/s | half-life (in vitro [15]): 15 min | half-life (in vitro [16]): 11.7 min | Papp B→A (in vitro [17]): 4 ×10⁻⁶ cm/s

N#Cc1ccc2c(c1)OCC[C@H]2Nc1ccc2[nH]nc(-c3ccncc3)c2c1
half-life [1]: 18 min | Kp [2]: 1 | half-life [3]: 88.2 min | MRT [4]: 145 min | Cmax [5]: 280 nM | Kp [6]: 0.5 | AUC(0-inf) [7]: 1.29 µM·h | AUC(0-inf) [8]: 0.14 µM·h | MRT [9]: 24.6 min | bioavailability [10]: 147% | Tmax [11]: 30 min | clearance [12]: 94.9 mL/min | Papp A→B (in vitro [13]): 19 ×10⁻⁶ cm/s | Cmax [14]: 460 nM | half-life (in vitro [15]): 38 min | half-life (in vitro [16]): 10.3 min | Papp B→A (in vitro [17]): 25 ×10⁻⁶ cm/s

N#Cc1ccc2c(c1)CCC[C@@H]2Nc1ccc2[nH]nc(-c3ccncc3)c2c1
half-life [1]: 42 min | Kp [2]: 1.8 | half-life [3]: 90 min | MRT [4]: 152 min | Cmax [5]: 340 nM | Kp [6]: 0.8 | AUC(0-inf) [7]: 1.49 µM·h | AUC(0-inf) [8]: 0.27 µM·h | MRT [9]: 48 min | bioavailability [10]: 112% | Tmax [11]: 30 min | clearance [12]: 68.4 mL/min | Papp A→B (in vitro [13]): 8.9 ×10⁻⁶ cm/s | Cmax [14]: 470 nM | half-life (in vitro [15]): 33 min | half-life (in vitro [16]): 17.7 min | Papp B→A (in vitro [17]): 7.3 ×10⁻⁶ cm/s

Cc1cc(-c2n[nH]c3ccc(N[C@@H]4CCCc5cc(C#N)ccc54)cc23)ccn1
half-life [1]: 24 min | Kp [2]: 0.5 | half-life [3]: 107 min | MRT [4]: 162 min | Cmax [5]: 310 nM | Kp [6]: 0.1 | AUC(0-inf) [7]: 1.06 µM·h | AUC(0-inf) [8]: 0.16 µM·h | MRT [9]: 30.6 min | bioavailability [10]: 77% | Tmax [11]: 3000 min | clearance [12]: 65.1 mL/min | Papp A→B (in vitro [13]): 1.8 ×10⁻⁶ cm/s | Cmax [14]: 390 nM | half-life (in vitro [15]): 22 min | half-life (in vitro [16]): 12.8 min | Papp B→A (in vitro [17]): 6.8 ×10⁻⁶ cm/s
